Laboratory results from PubChem BioAssay (NCI).
Values joined by “and” are separate entries in the source; they are usually repeats but may differ in a detail not shown here. Identical values can stand only once.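 Method: 48-hour compound exposure of cells in 96-well plates, five concentrations, linear interpolation of endpoints. Abbreviation: GI50, concentration required for 50% inhibition of growth. TGI: total growth inhibition.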

How the values were obtained:
Assay in all cases: NCI tumour cell line growth inhibition, 48 h
786-0 renal = system: 786-0 renal
HCT-15 colon = system: HCT-15 colon
MCF7 breast = system: MCF7 breast
OVCAR-8 ovarian = system: OVCAR-8 ovarian
SK-MEL-28 melanoma = system: SK-MEL-28 melanoma
T-47D breast = system: T-47D breast
UACC-62 melanoma = system: UACC-62 melanoma
UO-31 renal = system: UO-31 renal

SMILES	GI50 (786-0 renal)	TGI (786-0 renal)	GI50 (HCT-15 colon)	TGI (HCT-15 colon)	GI50 (MCF7 breast)	TGI (MCF7 breast)	GI50 (OVCAR-8 ovarian)	TGI (OVCAR-8 ovarian)	GI50 (SK-MEL-28 melanoma)	TGI (SK-MEL-28 melanoma)	GI50 (T-47D breast)	TGI (T-47D breast)	GI50 (UACC-62 melanoma)	TGI (UACC-62 melanoma)	GI50 (UO-31 renal)	TGI (UO-31 renal)
Cc1ccc(NC(=O)c2ccoc2)cc1-c1ccc(C(=O)NCC2CC2)cc1	> 25 µM	> 25 µM	> 20.5 µM	> 25 µM	> 16.1 µM	> 25 µM	> 25 µM	> 25 µM	> 25 µM	> 25 µM	7.16 µM	> 25 µM	13.9 µM	> 25 µM	> 9.98 µM	> 17.1 µM
Nc1nc(N)c2cc(S(=O)(=O)c3cccc(C(F)(F)F)c3)ccc2n1	3.98 µM	> 100 µM	3.09 µM	> 100 µM	5.7 µM	> 100 µM	4.22 µM	> 100 µM	85.1 µM	> 100 µM			3.41 µM	> 100 µM	4.96 µM	> 100 µM
CCCCCOC(=O)c1c(C)[nH]c(/C=C2\N=C(c3ccc[nH]3)C=C2OC)c1C	0.0468 µM	0.397 µM	0.0264 µM	1.4 µM	0.0451 µM	1.14 µM	0.0373 µM	1.18 µM	0.129 µM	1.25 µM	0.0369 µM	1.37 µM	0.0213 µM	0.0491 µM	0.021 µM	0.0689 µM
CN1CCN(c2ccc3nc(-c4[nH]ncc4Nc4ncnc5[nH]ccc45)[nH]c3c2)CC1	0.387 µM	2.21 µM	1.38 µM	13.3 µM	0.293 µM	11.2 µM	0.381 µM	> 31.1 µM	0.309 µM	1.75 µM	0.32 µM	> 52.4 µM	0.241 µM	1.56 µM	0.558 µM	2.57 µM
COc1ccc2c(c1)c(-c1ccc(-c3cn(C)c4ccc(OC)cc34)s1)cn2C	> 100 µM	> 100 µM	> 100 µM	> 100 µM	> 100 µM	> 100 µM	> 100 µM	> 100 µM	> 100 µM	> 100 µM			> 100 µM	> 100 µM	> 100 µM	> 100 µM
CCOc1cc(/C=C/C(=O)CC(=O)/C=C/c2ccc(OC(=O)CNc3nc4ccc(OC)cc4s3)c(OCC)c2)ccc1OC(=O)CNc1nc2ccc(OC)cc2s1	17 µM	85.1 µM	5.24 µM	22.6 µM	2.54 µM	10.8 µM	2.5 µM	6.32 µM	3.54 µM	12.2 µM	10.6 µM	43.1 µM	7.6 µM	20.3 µM	2.58 µM	> 100 µM
CN1CCC2(CC1)C(=O)Nc1cc(NC(=O)c3ccc4c(c3)C[C@@H]3C(C)(C)[C@H](O)[C@H](F)C[C@@]3(C)O4)ccc12	0.249 µM	14.9 µM	11 µM	45.8 µM	0.0925 µM	21.4 µM	26.6 µM	> 100 µM	1.53 µM	14.5 µM	5.67 µM	28.8 µM	0.405 µM	5.13 µM	4.67 µM	19.1 µM
C/C(=C1\C(=O)Nc2ccccc21)c1cccc(/C(C)=C2/C(=O)Nc3ccccc32)n1	17.3 µM	89.6 µM	4.21 µM	34.9 µM	3.74 µM	> 100 µM	6.39 µM	76.8 µM	31.5 µM	> 100 µM	4.63 µM	> 100 µM	4.56 µM	23.2 µM	24.5 µM	> 100 µM
COCCn1c(Nc2ccc(C(=O)NO)cc2)nc2ccccc21	10.5 µM	23.5 µM	9.14 µM	31.5 µM	5.45 µM	> 100 µM	2.69 µM	16 µM	4.94 µM	21 µM	3.03 µM	> 100 µM	2.06 µM	10.5 µM	2.25 µM	17.1 µM
CCOC(=O)c1sc2nc(=S)[nH]c(NC(N)=S)c2c1C	21.5 µM	45.5 µM	16.7 µM	39.2 µM	16.5 µM	37.2 µM	25.4 µM	63.3 µM	19 µM	41.6 µM	11.3 µM	37 µM	12.4 µM	26.1 µM	20.3 µM	61.7 µM
O=C(Nc1ccc(Nc2ccc3c(c2)C(=O)c2ccccc2C3=O)c2c1C(=O)c1ccccc1C2=O)c1ccccc1		> 100 µM		> 100 µM		> 100 µM		> 100 µM		> 100 µM		> 100 µM		> 100 µM		> 100 µM
O=C(O)C1CCCN1 (stereo not drawn)		> 100 µM		> 100 µM		> 100 µM		> 100 µM		> 100 µM		> 100 µM		> 100 µM		> 100 µM
O=c1[nH]c(=O)n(Cc2ccc(C34CC5CC(CC(C5)C3)C4)c(O)c2)cc1F	13.8 µM	28.5 µM	10.2 µM	22.3 µM	11.9 µM	30.9 µM			4.62 µM	21.8 µM	13.6 µM	44.4 µM	6.93 µM	20.3 µM	14.2 µM	29.8 µM
O=c1oc2ccccc2cc1P(=O)(O)O		> 100 µM		> 100 µM		> 100 µM		> 100 µM		> 100 µM		> 100 µM		> 100 µM		
Clc1ccc(NCNC2Nc3ccccc3N2)cc1Cl		> 100 µM		> 100 µM		29.1 µM		46.6 µM		> 100 µM		> 100 µM		> 100 µM		> 100 µM
Clc1ccc2c(NC3CCC(NC4CCCCC4)CC3)ccnc2c1 (stereo not drawn)	11.9 µM	24.5 µM	3.52 µM	12.8 µM	2.49 µM	11 µM	4.43 µM	19.3 µM	1.79 µM	3.3 µM	3.42 µM	17.7 µM	3.26 µM	12.5 µM	3.42 µM	16 µM
CCCCCCCCCCCC(c1ccccc1)[N+](C)(C)C (stereo not drawn)	1.63 µM	3.55 µM	14.1 µM	37 µM	1.44 µM	3.19 µM	1.18 µM	3.06 µM	1.49 µM	3.31 µM	1.9 µM	9.79 µM			10.7 µM	26.9 µM

SMILES	GI50 (786-0 renal)	TGI (786-0 renal)	GI50 (HCT-15 colon)	TGI (HCT-15 colon)	GI50 (MCF7 breast)	TGI (MCF7 breast)	GI50 (OVCAR-8 ovarian)	TGI (OVCAR-8 ovarian)	GI50 (SK-MEL-28 melanoma)	TGI (SK-MEL-28 melanoma)	GI50 (T-47D breast)	TGI (T-47D breast)	GI50 (UACC-62 melanoma)	TGI (UACC-62 melanoma)	GI50 (UO-31 renal)	TGI (UO-31 renal)
Cc1ccc(/C=C/C(=O)c2ccc(F)cc2)s1	3.41 µM	14.1 µM	4.14 µM	18.4 µM	3.66 µM	16.9 µM	2.74 µM	8.72 µM	2.94 µM	7.31 µM	4.71 µM	23.5 µM	6.86 µM	21.3 µM	1.69 µM	4.04 µM
c1ccc2[nH]c(-c3ccc(Nc4nc(N5CCCC5)nc5[nH]ncc45)cc3)nc2c1	0.17 µM	0.347 µM	0.255 µM	0.763 µM	0.213 µM	0.619 µM	0.241 µM	0.621 µM	0.181 µM	0.338 µM					1.46 µM	3.54 µM
C=C(C)[C@@H]1CC[C@]2(C(=O)OC)CC[C@]3(C)[C@H](CC[C@@H]4[C@@](C)(CCc5nn[nH]n5)[C@H](C(=C)C)CC[C@]43C)[C@@H]12	53.4 µM	> 100 µM	13.2 µM	35.7 µM	17 µM	70.5 µM	28.6 µM	> 100 µM	12.9 µM	27.8 µM	15.2 µM	84.3 µM	5.35 µM	19.6 µM	10.9 µM	23 µM
CC(=O)Nc1ccc(CC[C@H]2CCC/C=C/[C@@H]3C[C@H](O)C[C@H]3[C@H](O)/C=C/C(=O)O2)cc1	0.0252 µM	0.0838 µM	0.471 µM	> 100 µM	0.157 µM	0.338 µM	0.0821 µM	> 100 µM	0.0362 µM	0.197 µM	0.29 µM		0.0434 µM	> 92.4 µM	0.316 µM	
CC(C)CC(NC(=O)C(O)C(N)Cc1ccccc1)C(=O)O (stereo not drawn)		> 100 µM		> 100 µM		> 100 µM		> 100 µM		> 100 µM		> 100 µM		> 100 µM		> 100 µM
COc1cc2c(cc1OCCCCCOc1ccc(-c3nc4ccccc4s3)cc1)N=C[C@@H]1CCCN1C2=O	1.2 µM	3.63 µM	2.46 µM	22.2 µM	1.21 µM	9.77 µM	3.13 µM	21.1 µM	8.74 µM	31.7 µM	0.799 µM	4.11 µM	3.27 µM	7.93 µM	2.5 µM	13.4 µM
Oc1ccc(CCNc2nc3ccccc3c3[nH]c4ccccc4c23)cc1O	1.62 µM	2.98 µM	1.9 µM	3.95 µM	3.13 µM		1.9 µM	3.85 µM	5.85 µM	18.3 µM	14.2 µM	32.2 µM	3.86 µM	13.4 µM		
O=C(Nc1ccccc1/C=C/c1n[nH]c2ccccc12)c1ccccc1	12.6 µM	26.7 µM	2.37 µM	8.53 µM	0.505 µM	13.2 µM	3.95 µM	14.6 µM	4.31 µM	17.7 µM	3.77 µM	15.8 µM	2.88 µM	13 µM	4.14 µM	19.3 µM
CC[C@@H]1C(=O)N(C)c2cnc(Nc3ccc(C(=O)NC4CCC(N5CCN(CC6CC6)CC5)CC4)cc3OC)nc2N1C(C)C (stereo partly drawn)	0.0614 µM and 0.0721 µM	> 3.29 µM and 1.28 µM	0.0686 µM and 0.145 µM	> 6.64 µM and 5.33 µM	0.00507 µM and < 0.01 µM	2.01 µM and 2.62 µM	0.0242 µM and 0.033 µM	> 10 µM and 1.65 µM	0.0737 µM and 0.0669 µM	2.64 µM and 3.16 µM	0.155 µM and 0.113 µM	> 10 µM and 21.9 µM	0.0356 µM and 0.0388 µM	> 8.3 µM and 13.3 µM	0.234 µM and 0.345 µM	> 10 µM and 7.53 µM
COc1cc(OC)c(OC)cc1/C=C/c1ccccn1		> 10 µM		> 10 µM		> 10 µM		> 10 µM		> 10 µM		> 10 µM		> 10 µM		> 10 µM
Cc1cc(NC(=O)NCCCOc2ccc(N3C(N)=NC(N)=NC3(C)C)cc2Cl)ccc1S(=O)(=O)F	2.46 µM	> 100 µM	39.2 µM	> 100 µM	0.614 µM	22.5 µM	2.52 µM	> 100 µM	1.93 µM	28.5 µM	4.82 µM	61.9 µM	0.608 µM	24.9 µM	> 82.4 µM	> 100 µM
Cc1cc[c]([Sb]2[O]C(CO)C(C(O)C(O)C(=O)O)[O]2)cc1 (stereo not drawn)	38.4 µM	> 100 µM	> 100 µM	> 100 µM			> 100 µM	> 100 µM	39.6 µM	> 100 µM	> 100 µM	> 100 µM	> 100 µM	> 100 µM	> 100 µM	> 100 µM
CCN(CC)CCN1C(=O)C2C3C(C)=CC(OC(C)=O)(CC3C)C2C1=O (stereo not drawn)	> 100 µM	> 100 µM	> 100 µM	> 100 µM			> 100 µM	> 100 µM			> 100 µM	> 100 µM	> 100 µM	> 100 µM	> 100 µM	> 100 µM
O=C(O)CN(CCN(CC(=O)O)CC(=O)O)CCN(CC(=O)O)CC(=O)O	2.54 µM	6.72 µM	3.67 µM	20.9 µM	3.75 µM	22.1 µM	3.19 µM	14.8 µM	4.05 µM	17.2 µM	3.74 µM	14.5 µM	3.35 µM	15.9 µM		
Cc1cc2c(cc1Cl)SC(=Nc1ccc(Cl)cc1)N(S(=O)(=O)c1ccc(Br)s1)S2(=O)=O	11.7 µM	24.7 µM	11.9 µM	29.7 µM	46.3 µM	> 100 µM	18.8 µM	46.1 µM	24.6 µM	> 100 µM			12 µM	25.3 µM	24.6 µM	61 µM
OC(c1ccccc1)c1c(-c2ccccc2)[nH]c(-c2ccccc2)c1C(O)c1ccccc1 (stereo not drawn)		16.1 µM		40.1 µM		19.1 µM				12.1 µM		40.4 µM		7.97 µM		5.78 µM
